Experimental data published in ChEMBL document CHEMBL1201861, “Genomics of Drug Sensitity in Cancer screening data, Wellcome Trust Sanger Institute”.

Columns and labels:
8305C = assay: cells; type: functional, cell-based; settings: Homo sapiens
Description: SANGER: Inhibition of human 8305C cell growth in a cell viability assay.

YAPC = assay: cells; type: functional, cell-based; settings: Homo sapiens;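 also: growth inhibition of YAPC cells, measured with a cell viability assay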
Description: SANGER: Inhibition of human YAPC cell growth in a cell viability assay.

MHH-CALL-2 = assay: cells; type: functional, cell-based; settings: Homo sapiens;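 also: growth inhibition of the cell line, read out in a cell viability assay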
Description: SANGER: Inhibition of human MHH-CALL-2 cell growth in a cell viability assay.

Raji = assay: cells; type: functional, cell-based; settings: Homo sapiens;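 also: cell viability assay measuring inhibition of Raji cell growth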
Description: SANGER: Inhibition of human Raji cell growth in a cell viability assay.

CAL-12T = assay: cells; type: functional, cell-based, Homo sapiens; settings: Homo sapiens, CAL-12T;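 also: growth inhibition of human CAL-12T cells, read out with a cell viability assay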
Description: SANGER: Inhibition of human CAL-12T cell growth in a cell viability assay.

OE33 = assay: cells; type: functional, cell-based; settings: Homo sapiens;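 also: growth inhibition of human OE33 cells, measured by a cell viability assay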
Description: SANGER: Inhibition of human OE33 cell growth in a cell viability assay.

DU-145 = assay: cells; type: functional, cell-based; settings: Homo sapiens
Description: SANGER: Inhibition of human DU-145 cell growth in a cell viability assay.

A2780 = assay: cells; type: functional, cell-based; settings: Homo sapiens;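 also: growth inhibition of A2780 cells, read out with a cell viability assay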
Description: SANGER: Inhibition of human A2780 cell growth in a cell viability assay.

SCC-4 = assay: cells; type: functional, cell-based; settings: Homo sapiens;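 also: growth inhibition of human SCC-4 cells, read out as cell viability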
Description: SANGER: Inhibition of human SCC-4 cell growth in a cell viability assay.

CAPAN-1 = assay: cells; type: functional, cell-based; settings: Homo sapiens;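 also: growth suppression of CAPAN-1 cells, read out by a cell viability assay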
Description: SANGER: Inhibition of human CAPAN-1 cell growth in a cell viability assay.

LC-1F = assay: cells; type: functional, cell-based; settings: Homo sapiens;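 also: growth inhibition of human LC-1F cells, read out with a cell viability assay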
Description: SANGER: Inhibition of human LC-1F cell growth in a cell viability assay.

DMS-273 = assay: cells; type: functional, cell-based; settings: Homo sapiens
Description: SANGER: Inhibition of human DMS-273 cell growth in a cell viability assay.

NCI-H661 = assay: cells; type: functional, cell-based; settings: Homo sapiens;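 also: cell viability assay read-out, IC50 being the concentration that inhibits growth of the cells by half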
Description: SANGER: Inhibition of human NCI-H661 cell growth in a cell viability assay.

A-431 = assay: cells; type: functional, cell-based; settings: Homo sapiens;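 also: growth inhibition of A-431 cells, determined with a cell viability read-out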
Description: SANGER: Inhibition of human A431 cell growth in a cell viability assay.

G-361 = assay: cells; type: functional, cell-based; settings: Homo sapiens
IGROV-1 = assay: cells; type: functional, cell-based; settings: Homo sapiens;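 also: reduction of IGROV-1 cell growth, read out with a viability assay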
Description: SANGER: Inhibition of human IGROV-1 cell growth in a cell viability assay.

C3A = assay: cells; type: functional, cell-based; settings: Homo sapiens;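 also: growth inhibition of C3A human cells, quantified with a cell viability readout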
Description: SANGER: Inhibition of human C3A cell growth in a cell viability assay.

NCI-H2087 = assay: cells; type: functional, cell-based; settings: Homo sapiens;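 also: growth inhibition determined with a cell viability readout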
Description: SANGER: Inhibition of human NCI-H2087 cell growth in a cell viability assay.

NCI-H596 = assay: cells; type: functional, cell-based; settings: Homo sapiens;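 also: growth inhibition of NCI-H596 cells, read out with a cell viability assay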
Description: SANGER: Inhibition of human NCI-H596 cell growth in a cell viability assay.

NCI-H727 = assay: cells; type: functional, cell-based; settings: Homo sapiens;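 also: growth inhibition of human NCI-H727 cells, read out with a cell viability assay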
Description: SANGER: Inhibition of human NCI-H727 cell growth in a cell viability assay.

U-698-M = assay: cells; type: functional, cell-based; settings: Homo sapiens
Description: SANGER: Inhibition of human U-698-M cell growth in a cell viability assay.

UO-31 = assay: cells; type: functional, cell-based; settings: Homo sapiens
Description: SANGER: Inhibition of human U031 cell growth in a cell viability assay.

EFM-19 = assay: cells; type: functional, cell-based; settings: Homo sapiens;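 also: growth inhibition of human EFM-19 cells, measured in a cell viability assay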
Description: SANGER: Inhibition of human EFM-19 cell growth in a cell viability assay.

SW1088 = assay: cells; type: functional, cell-based; settings: Homo sapiens;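 also: growth inhibition of human SW1088 cells, read out by a cell viability assay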
Description: SANGER: Inhibition of human SW1088 cell growth in a cell viability assay.

JIYOYE = assay: cells; type: functional, cell-based; settings: Homo sapiens
Description: SANGER: Inhibition of human JiyoyeP-2003 cell growth in a cell viability assay.

NCI-H1963 = assay: cells; type: functional, cell-based; settings: Homo sapiens;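 also: cell growth inhibition of the human line, determined with a cell viability assay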
Description: SANGER: Inhibition of human NCI-H1963 cell growth in a cell viability assay.

MDA-MB-175-VII = assay: cells; type: functional, cell-based; settings: Homo sapiens
A-427 = assay: cells; type: functional, cell-based; settings: Homo sapiens;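 also: growth inhibition of human A-427 cells, read out by a cell viability assay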
Description: SANGER: Inhibition of human A427 cell growth in a cell viability assay.

RT-112 = assay: cells; type: functional, cell-based; settings: Homo sapiens
Description: SANGER: Inhibition of human RT-112 cell growth in a cell viability assay.

U-251 = assay: cells; type: functional, cell-based; settings: Homo sapiens;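 also: growth inhibition of human U-251 cells, read out through a cell viability assay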
Description: SANGER: Inhibition of human U251 cell growth in a cell viability assay.

SUP-T1 = assay: cells; type: functional, cell-based; settings: Homo sapiens;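 also: growth inhibition of human SUP-T1 cells, read out as cell viability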
Description: SANGER: Inhibition of human SUP-T1 cell growth in a cell viability assay.

TE-441-T = assay: cells; type: functional, cell-based; settings: Homo sapiens
Description: SANGER: Inhibition of human TE-441-T cell growth in a cell viability assay.

HT55 = assay: cells; type: functional, cell-based; settings: Homo sapiens;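 also: cell viability readout measuring growth inhibition of human HT55 cells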
Description: SANGER: Inhibition of human HT55 cell growth in a cell viability assay.

MKN-45 = assay: cells; type: functional, cell-based; settings: Homo sapiens;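 also: growth inhibition of human MKN-45 cells, measured with a cell viability assay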
Description: SANGER: Inhibition of human MKN45 cell growth in a cell viability assay.

SNU-423 = assay: cells; type: functional, cell-based; settings: Homo sapiens
Description: SANGER: Inhibition of human SNU-423 cell growth in a cell viability assay.

RERF-LC-MS = assay: cells; type: functional, cell-based; settings: Homo sapiens;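 also: growth inhibition of human RERF-LC-MS cells, read out by a cell viability assay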
Description: SANGER: Inhibition of human RERF-LC-MS cell growth in a cell viability assay.

SAOS-2 = assay: cells; type: functional, cell-based; settings: Homo sapiens;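 also: growth inhibition of human Saos-2 cells determined by a cell viability assay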
Description: SANGER: Inhibition of human Saos-2 cell growth in a cell viability assay.

5637 = assay: cells; type: functional, cell-based; settings: Homo sapiens
Description: SANGER: Inhibition of human 5637 cell growth in a cell viability assay.

LC4-1 = assay: cells; type: functional, cell-based; settings: Homo sapiens;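 also: growth inhibition of LC4-1 cells, read out with a cell viability assay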
Description: SANGER: Inhibition of human LC4-1 cell growth in a cell viability assay.

GDM-1 = assay: cells; type: functional, cell-based; settings: Homo sapiens;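 also: cell viability readout used to measure growth inhibition of human GDM-1 cells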
Description: SANGER: Inhibition of human GDM-1 cell growth in a cell viability assay.

BL-70 = assay: SANGER: Inhibition of human BL-70 cell growth in a cell viability assay.; type: functional, cell-based
HOS = assay: cells; type: functional, cell-based; settings: Homo sapiens;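 also: growth inhibition of human HOS cells, read out with a cell viability assay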
Description: SANGER: Inhibition of human HOS cell growth in a cell viability assay.

S-117 = assay: cells; type: functional, cell-based; settings: Homo sapiens
Description: SANGER: Inhibition of human S-117 cell growth in a cell viability assay.

MONO-MAC-6 = assay: cells; type: functional, cell-based; settings: Homo sapiens;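 also: cell viability assay measuring growth inhibition of human MONO-MAC-6 cells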
Description: SANGER: Inhibition of human MONO-MAC-6 cell growth in a cell viability assay.

HT-1080 = assay: cells; type: functional, cell-based; settings: Homo sapiens
Description: SANGER: Inhibition of human HT-1080 cell growth in a cell viability assay.

DK-MG = assay: cells; type: functional, cell-based; settings: Homo sapiens;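 also: growth inhibition of DK-MG cells, read out with a cell viability assay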
Description: SANGER: Inhibition of human DK-MG cell growth in a cell viability assay.

MC-CAR = assay: cells; type: functional, cell-based; settings: Homo sapiens;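 also: growth inhibition of the human MC-CAR cell line, read out by a cell viability assay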
Description: SANGER: Inhibition of human MC-CAR cell growth in a cell viability assay.

SK-MM-2 = assay: cells; type: functional, cell-based; settings: Homo sapiens;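 also: growth inhibition of human SK-MM-2 cells, read out with a cell viability assay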
Description: SANGER: Inhibition of human SK-MM-2 cell growth in a cell viability assay.

LK-2 = assay: cells; type: functional, cell-based; settings: Homo sapiens;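 also: growth inhibition of LK-2 cells, read out with a viability assay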
Description: SANGER: Inhibition of human LK-2 cell growth in a cell viability assay.

H4 = assay: cells; type: functional, cell-based; settings: Homo sapiens
Description: SANGER: Inhibition of human H4 cell growth in a cell viability assay.

Hs-578T = assay: cells; type: functional, cell-based; settings: Homo sapiens
Description: SANGER: Inhibition of human Hs-578-T cell growth in a cell viability assay.

ESS-1 = assay: cells; type: functional, cell-based; settings: Homo sapiens;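 also: growth inhibition of human ESS-1 cells, read out by a cell viability assay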
Description: SANGER: Inhibition of human ESS-1 cell growth in a cell viability assay.

COR-L105 = assay: cells; type: functional, cell-based; settings: Homo sapiens
Description: SANGER: Inhibition of human COR-L105 cell growth in a cell viability assay.

HCC38 = assay: cells; type: functional, cell-based; settings: Homo sapiens;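 also: cell viability assay on the human HCC38 cell line, with IC50 marking the concentration that inhibits cell growth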
Description: SANGER: Inhibition of human HCC38 cell growth in a cell viability assay.

CHP-126 = assay: cells; type: functional, cell-based; settings: Homo sapiens
Description: SANGER: Inhibition of human CHP-126 cell growth in a cell viability assay.

A 172 = assay: cells; type: functional, cell-based; settings: Homo sapiens;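 also: growth inhibition of A172 cells, measured with a cell viability readout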
Description: SANGER: Inhibition of human A172 cell growth in a cell viability assay.

SW837 = assay: cells; type: functional, cell-based; settings: Homo sapiens;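 also: growth inhibition of SW837 cells, determined with a cell viability assay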
Description: SANGER: Inhibition of human SW837 cell growth in a cell viability assay.

G-402 = assay: cells; type: functional, cell-based; settings: Homo sapiens
Description: SANGER: Inhibition of human G-402 cell growth in a cell viability assay.

CAL-120 = assay: cells; type: functional, cell-based; settings: Homo sapiens;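 also: cell growth inhibition, read out as cell viability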
Description: SANGER: Inhibition of human CAL-120 cell growth in a cell viability assay.

NCI-H441 = assay: cells; type: functional, cell-based; settings: Homo sapiens;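 also: growth inhibition of NCI-H441 cells, read out with a cell viability assay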
Description: SANGER: Inhibition of human NCI-H441 cell growth in a cell viability assay.

MDA-MB-415 = assay: cells; type: functional, cell-based; settings: Homo sapiens
LU-99A = assay: cells; type: functional, cell-based; settings: Homo sapiens;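 also: growth inhibition of LU-99A cells, read out with a cell viability assay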
Description: SANGER: Inhibition of human LU-99A cell growth in a cell viability assay.

LB647-SCLC = assay: cells; type: functional, cell-based; settings: Homo sapiens;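 also: cell growth inhibition, read out by a viability assay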
Description: SANGER: Inhibition of human LB647-SCLC cell growth in a cell viability assay.

HGC-27 = assay: cells; type: functional, cell-based; settings: Homo sapiens;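 also: growth inhibition of human HGC-27 cells, read out in a cell viability assay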
Description: SANGER: Inhibition of human HGC-27 cell growth in a cell viability assay.

CAL-33 = assay: cells; type: functional, cell-based; settings: Homo sapiens;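 also: growth inhibition of CAL-33 cells, read out with a cell viability assay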
Description: SANGER: Inhibition of human CAL-33 cell growth in a cell viability assay.

O=c1[nH]c2ccccc2n1C1CCN(Cc2ccc(-c3nc4cc5[nH]cnc5cc4nc3-c3ccccc3)cc2)CC1
IC50 (8305C): > 2560 nM | IC50 (YAPC): > 2560 nM | IC50 (MHH-CALL-2): > 2560 nM | IC50 (Raji): > 2560 nM | IC50 (CAL-12T): > 2560 nM | IC50 (OE33): 1890 nM | IC50 (DU-145): > 2560 nM | IC50 (A2780): > 2560 nM | IC50 (SCC-4): > 2560 nM | IC50 (CAPAN-1): > 2560 nM | IC50 (LC-1F): > 2560 nM | IC50 (DMS-273): > 2560 nM | IC50 (NCI-H661): > 2560 nM | IC50 (A-431): > 2560 nM | IC50 (G-361): > 2560 nM | IC50 (IGROV-1): 723 nM | IC50 (C3A): > 2560 nM | IC50 (NCI-H2087): > 2560 nM | IC50 (NCI-H596): > 2560 nM | IC50 (NCI-H727): > 2560 nM | IC50 (U-698-M): > 2560 nM | IC50 (UO-31): > 2560 nM | IC50 (EFM-19): 564 nM | IC50 (SW1088): > 2560 nM | IC50 (JIYOYE): > 2560 nM | IC50 (NCI-H1963): > 2560 nM | IC50 (MDA-MB-175-VII): > 2560 nM | IC50 (A-427): > 2560 nM | IC50 (RT-112): > 2560 nM | IC50 (U-251): > 2560 nM | IC50 (SUP-T1): > 2560 nM | IC50 (TE-441-T): > 2560 nM | IC50 (HT55): > 2560 nM | IC50 (MKN-45): > 2560 nM | IC50 (SNU-423): > 2560 nM | IC50 (RERF-LC-MS): > 2560 nM | IC50 (SAOS-2): > 2560 nM | IC50 5637: > 2560 nM | IC50 (LC4-1): > 2560 nM | IC50 (GDM-1): > 2560 nM | IC50 (BL-70): > 2560 nM | IC50 (HOS): > 2560 nM | IC50 (S-117): > 2560 nM | IC50 (MONO-MAC-6): > 2560 nM | IC50 (HT-1080): > 2560 nM | IC50 (DK-MG): > 2560 nM | IC50 (MC-CAR): > 2560 nM | IC50 (SK-MM-2): > 2560 nM | IC50 (LK-2): > 2560 nM | IC50 (H4): > 2560 nM | IC50 (Hs-578T): > 2560 nM | IC50 (ESS-1): > 2560 nM | IC50 (COR-L105): > 2560 nM | IC50 (HCC38): > 2560 nM | IC50 (CHP-126): > 2560 nM | IC50 (A 172): > 2560 nM | IC50 (SW837): > 2560 nM | IC50 (G-402): 1780 nM | IC50 (CAL-120): > 2560 nM | IC50 (NCI-H441): > 2560 nM | IC50 (MDA-MB-415): 1730 nM | IC50 (LU-99A): > 2560 nM | IC50 (LB647-SCLC): > 2560 nM | IC50 (HGC-27): 150 nM | IC50 (CAL-33): > 2560 nM

Fc1cc(-c2cc[nH]/c(=N/c3ccc(-n4cnc(N5CCOCC5)n4)cc3)n2)cc(N2CCOCC2)c1
IC50 (8305C): 397 nM | IC50 (YAPC): 2290 nM | IC50 (MHH-CALL-2): 762 nM | IC50 (Raji): 495 nM | IC50 (CAL-12T): 2110 nM | IC50 (OE33): 517 nM | IC50 (DU-145): 480 nM | IC50 (A2780): 653 nM | IC50 (SCC-4): 1250 nM | IC50 (CAPAN-1): 394 nM | IC50 (LC-1F): 2530 nM | IC50 (DMS-273): 105 nM | IC50 (NCI-H661): 501 nM | IC50 (A-431): 249 nM | IC50 (G-361): 266 nM | IC50 (IGROV-1): 97.7 nM | IC50 (C3A): 566 nM | IC50 (NCI-H2087): 341 nM | IC50 (NCI-H596): 814 nM | IC50 (NCI-H727): 647 nM | IC50 (U-698-M): 282 nM | IC50 (UO-31): 519 nM | IC50 (EFM-19): 760 nM | IC50 (SW1088): > 5120 nM | IC50 (JIYOYE): 263 nM | IC50 (NCI-H1963): 873 nM | IC50 (MDA-MB-175-VII): 2960 nM | IC50 (A-427): 286 nM | IC50 (RT-112): 337 nM | IC50 (U-251): 1310 nM | IC50 (SUP-T1): 427 nM | IC50 (TE-441-T): 316 nM | IC50 (HT55): > 5120 nM | IC50 (MKN-45): 994 nM | IC50 (SNU-423): 378 nM | IC50 (RERF-LC-MS): 874 nM | IC50 (SAOS-2): 1780 nM | IC50 5637: 5040 nM | IC50 (LC4-1): 431 nM | IC50 (GDM-1): 204 nM | IC50 (BL-70): 252 nM | IC50 (HOS): 613 nM | IC50 (S-117): > 5120 nM | IC50 (MONO-MAC-6): 544 nM | IC50 (HT-1080): 428 nM | IC50 (DK-MG): > 5120 nM | IC50 (MC-CAR): 380 nM | IC50 (SK-MM-2): 1270 nM | IC50 (LK-2): 849 nM | IC50 (H4): 439 nM | IC50 (Hs-578T): > 5120 nM | IC50 (ESS-1): 659 nM | IC50 (COR-L105): 235 nM | IC50 (HCC38): 1730 nM | IC50 (CHP-126): 608 nM | IC50 (A 172): 669 nM | IC50 (SW837): 2950 nM | IC50 (G-402): 258 nM | IC50 (CAL-120): 1420 nM | IC50 (NCI-H441): > 5120 nM | IC50 (MDA-MB-415): 1330 nM | IC50 (LU-99A): 740 nM | IC50 (LB647-SCLC): > 5120 nM | IC50 (HGC-27): 284 nM | IC50 (CAL-33): 826 nM
